Results taken from patent US9546164B2 (GENENTECH, INC., priority 2013, dated 2017).
Structures can show the parent of a compound that is named as a salt. Where two headings read alike, the source gives them in different places.

Molecular target: hNav1.7 (Homo sapiens (Human), UniProt Q15858)
Test: Tritiated sulfonamide competitive binding to membranes from cells expressing hNav1.7 and the β1 subunit;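 further: Filter-bound radioactivity counted by liquid scintillation, nonspecific binding defined with excess unlabelled ligand, IC50 fitted to percent inhibition of specific binding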
[1] = read-out: Ligand Binding Assay, 100 pM [3H]compound, membranes with hNav1.7 and β1 subunit, 18 h, room temperature

hNav1.7, sequence (Q15858 other isoform, or with tags, fused parts or gaps): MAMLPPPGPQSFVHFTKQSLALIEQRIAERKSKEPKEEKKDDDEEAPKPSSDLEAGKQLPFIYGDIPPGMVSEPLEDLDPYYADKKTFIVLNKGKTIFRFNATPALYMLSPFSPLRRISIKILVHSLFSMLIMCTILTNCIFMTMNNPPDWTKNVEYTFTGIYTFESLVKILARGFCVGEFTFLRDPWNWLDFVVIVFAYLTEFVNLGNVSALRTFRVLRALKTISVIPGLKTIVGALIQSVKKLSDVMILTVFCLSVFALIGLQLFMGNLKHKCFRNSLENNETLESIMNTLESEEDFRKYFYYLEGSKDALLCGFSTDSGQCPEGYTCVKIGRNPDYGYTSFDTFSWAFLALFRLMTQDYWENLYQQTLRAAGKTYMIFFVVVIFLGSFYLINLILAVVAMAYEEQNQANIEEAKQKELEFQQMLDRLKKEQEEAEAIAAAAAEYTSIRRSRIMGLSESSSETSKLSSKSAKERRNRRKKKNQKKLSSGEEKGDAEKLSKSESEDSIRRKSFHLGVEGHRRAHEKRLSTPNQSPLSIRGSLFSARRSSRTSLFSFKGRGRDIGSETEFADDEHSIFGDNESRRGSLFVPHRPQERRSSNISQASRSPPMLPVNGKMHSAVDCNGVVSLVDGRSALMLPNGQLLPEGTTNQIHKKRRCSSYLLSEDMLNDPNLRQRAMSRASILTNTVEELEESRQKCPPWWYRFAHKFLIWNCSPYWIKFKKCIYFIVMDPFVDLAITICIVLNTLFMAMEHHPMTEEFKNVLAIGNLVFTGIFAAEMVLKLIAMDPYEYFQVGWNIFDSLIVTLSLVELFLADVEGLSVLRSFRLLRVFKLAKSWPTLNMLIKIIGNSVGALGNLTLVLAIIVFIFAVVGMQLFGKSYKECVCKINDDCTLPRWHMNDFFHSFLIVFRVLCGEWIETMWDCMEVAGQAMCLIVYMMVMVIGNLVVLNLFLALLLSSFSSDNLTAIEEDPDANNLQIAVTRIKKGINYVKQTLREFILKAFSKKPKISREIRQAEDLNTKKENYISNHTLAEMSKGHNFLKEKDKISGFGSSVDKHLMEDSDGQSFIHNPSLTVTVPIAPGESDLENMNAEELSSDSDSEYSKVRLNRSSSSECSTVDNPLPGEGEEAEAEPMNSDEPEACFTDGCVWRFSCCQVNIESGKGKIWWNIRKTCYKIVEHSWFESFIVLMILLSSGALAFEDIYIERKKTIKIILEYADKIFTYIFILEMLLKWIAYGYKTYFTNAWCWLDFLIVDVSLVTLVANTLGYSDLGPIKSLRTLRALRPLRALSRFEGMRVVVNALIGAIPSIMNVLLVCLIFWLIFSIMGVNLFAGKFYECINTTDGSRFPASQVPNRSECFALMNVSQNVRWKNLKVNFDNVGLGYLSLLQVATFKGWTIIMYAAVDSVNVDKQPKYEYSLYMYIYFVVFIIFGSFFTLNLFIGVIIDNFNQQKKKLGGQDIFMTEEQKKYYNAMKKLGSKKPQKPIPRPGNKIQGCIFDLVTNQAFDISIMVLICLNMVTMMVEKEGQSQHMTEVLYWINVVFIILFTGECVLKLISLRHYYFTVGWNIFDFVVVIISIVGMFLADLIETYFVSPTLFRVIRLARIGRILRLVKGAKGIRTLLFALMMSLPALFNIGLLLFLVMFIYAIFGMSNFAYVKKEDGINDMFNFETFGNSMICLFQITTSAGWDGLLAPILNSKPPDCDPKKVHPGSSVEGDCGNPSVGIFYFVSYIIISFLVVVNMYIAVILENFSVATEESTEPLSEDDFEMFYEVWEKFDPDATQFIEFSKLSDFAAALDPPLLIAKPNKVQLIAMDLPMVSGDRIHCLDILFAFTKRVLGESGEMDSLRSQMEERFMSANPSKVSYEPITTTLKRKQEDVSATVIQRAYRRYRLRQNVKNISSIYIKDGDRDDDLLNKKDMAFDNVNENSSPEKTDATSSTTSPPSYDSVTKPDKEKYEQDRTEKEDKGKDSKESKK
hNav1.7, sequence (Q07699 19-218 partner): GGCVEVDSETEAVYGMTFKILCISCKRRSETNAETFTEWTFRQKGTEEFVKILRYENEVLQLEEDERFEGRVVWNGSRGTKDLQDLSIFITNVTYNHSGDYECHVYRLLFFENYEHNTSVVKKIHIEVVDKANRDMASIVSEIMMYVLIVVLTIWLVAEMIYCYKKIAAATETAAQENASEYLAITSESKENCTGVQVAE
Procedure: Tritiated Sulfonamide Binding to Membranes
Preparation of membranes containing recombinantly expressed sodium channels: Frozen recombinant cell pellets were thawed on ice and diluted to 4 times the cell pellet weight with ice cold 50 mM TrisHCl, pH 7.4 buffer. The cell suspensions were homogenized on ice using a motorized glass douncehomogeniser. Homogenates were further diluted 8.4 times with ice cold 50 mM TrisHCl, pH 7.4 buffer and then centrifuged at 200×g at 4° C. for 15 min. The supersatants were collected and centrifuged at 10000×g at 4° C. for 50 min. The pellets were then re-suspended in 100 mMNaCl, 20 mM TrisHCl, pH. 7.4 buffer containing 1% v/v protease inhibitors (Calbiochem) and re-homogenized on ice. The homogenized membranes were then processed through a syringe equipped with a 26 gauge needle. Protein concentrations were determined by Bradford Assay and the membranes were stored at −80° C.
Radioligand Binding Studies: Saturation experiments. A representative compound of formula (I) having a methyl group was tritiated. Three tritiums were incorporated in place of methyl hydrogens to generate [^3H]compound. Binding of this radioligand was preformed in 5 mL borosilicate glass test tubes at room temperature. Binding was initiated by adding membranes to increasing concentrations of [^3H]compound in 100 mM NaCl, 20 mM TrisHCl, pH 7.4 buffer containing 0.01% w/v bovine serum albumin (BSA) for 18 h. Non-specific binding was determined in the presence of 1 μM unlabelled compound. After 18 h, the reactants were filtered through GF/C glass fiber filters presoaked in 0.5% w/v polyethylene imine. Filters were washed with 15 mL ice cold 100 mM NaCl, 20 mM TrisHCl, pH7.4 buffer containing 0.25% BSA to separate bound from free ligand. [^3H]compound bound to filters was quantified by liquid scintillation counting.
Competitive binding experiments: Binding reactions were preformed its 96-well polypropylene plates at room temperature for 18 h. In 360 μL, membranes were incubated with 100 pM [^3H]compound and increasing concentrations of Test Compound. Non-specific binding was defined in the presence of 1 μM unlabelled compound. Reactions were transferred and filtered through 96-well glass fiber/C filter plates presoaked with 0.5% polyethylene imine. The filtered reactions were washed 5 times with 200 μL ice cold butter containing 0.25% BSA. Bound radioactivity was determined by liquid scintillation counting.
Data Analysis: For saturation experiments, non-specific binding was subtracted from total binding to provide specific binding and these values were recalculated in terms of pmol ligand bound per mg protein. Saturation curves were constructed and dissociation constants were calculated using the single site ligand binding model: Beq=(Bmax*X)/(X+KD), where Beq is the amount of ligand bound at equilibrium, Bmax is the maximum receptor density, Kd is the dissociation constant for the ligand, and X is the tree ligand concentration. For competition studies percent inhibition was determined and IC50 values were calculated using a 4 parameter logistic model (% inhibition=(A+((B−A)/(1+((x/C)^D)))) using XLfit, where A and B are the maximal and minimum inhibition respectively, C is the IC50 concentration and D is the (Hill) slope.

SMILES | IC50 [1] [nM] | IC50 [nM]
C[C@@H](c1cc(Cl)cc(Cl)c1)N1CC(COc2cc(F)c(C(=O)NS(C)(=O)=O)cc2C2CC2)C1 [Example 120, (S)-5-Cyclopropyl-4-((1-(1-(3,5-dichlorophenyl)ethyl)azetidin-3-yl)methoxy)-2-fluoro-N-(methylsulfonyl)benzamide] | 20.6 | 
CS(=O)(=O)NC(=O)c1cc(C2CC2)c(OCC2CN([C@@H](c3ccccc3)c3ccc(S(C)(=O)=O)cc3)C2)cc1F [Example 95, (S)-5-Cyclopropyl-2-fluoro-N-(methylsulfonyl)-4-((1-((4-(methylsulfonyl)phenyl)(phenyl)methyl)azetidin-3-yl)methoxy)benzamide] | 1060 | 
CS(=O)(=O)NC(=O)c1cc(C2CC2)c(OCC2CCN(S(=O)(=O)c3ccccc3C(F)(F)F)CC2)cc1F [Example 370, 5-cyclopropyl-2-fluoro-N-(methylsulfonyl)-4-((1-((2-(trifluoromethyl)phenyl)sulfonyl)piperidin-4-yl)methoxy)benzamide] | 30.8 | 
CS(=O)(=O)NC(=O)c1cc(C2CC2)c(CN2CCC(Oc3ccc(Cl)cc3Cl)CC2)cc1F [Example 546, 5-cyclopropyl-4-((4-(2,4-dichlorophenoxy)piperidin-1-yl)methyl)-2-fluoro-N-(methylsulfonyl)benzamide, trifluoroacetic acid salt] |  | 11.9
C[C@H](c1cc(Cl)cc(Cl)c1)N1[C@@H]2CC[C@H]1C[C@H](COc1cc(F)c(C(=O)NS(C)(=O)=O)cc1C1CC1)C2 [Example 353, 5-cyclopropyl-4-(((1R,3S,5S)-8-((R)-1-(3,5-dichlorophenyl)ethyl)-8-azabicyclo[3.2.1]octan-3-yl)methoxy)-2-fluoro-N-(methylsulfonyl)benzamide, trifluoroacetic acid salt] | 11 | 
O=C(NS(=O)(=O)C1CC1)c1cc(C2CC2)c(O[C@@H]2CCCN(Cc3ccc(F)cc3C(F)(F)F)C2)cc1F [Example 35] |  | 2.4
CCS(=O)(=O)NC(=O)c1cc(C2CC2)c(OCCC2CCN(Cc3cc(Cl)cc(Cl)c3)CC2)cc1F [Example 303, 5-cyclopropyl-4-(2-(1-(3,5-dichlorobenzyl)piperidin-4-yl)ethoxy)-N-(ethylsulfonyl)-2-fluorobenzamide, trifluoroacetic acid salt] | 6.5 | 
C[C@H](c1cc(Cl)cc(Cl)c1)N1CCC(COc2cc(F)c(C(=O)NS(C)(=O)=O)cc2Cl)CC1 [Example 404, (R)-5-chloro-4-((1-(1-(3,5-dichlorophenyl)ethyl)piperidin-4-yl)methoxy)-2-fluoro-N-(methylsulfonyl)benzamide, trifluoroacetic acid] | 20.1 | 
C[C@H]1CC[C@@H](Oc2cc(F)c(C(=O)NS(=O)(=O)C3CC3)cc2C2CC2)CN1Cc1ccc(F)cc1Cl [Example 326, 4-(((3R,6S)-1-(2-chloro-4-fluorobenzyl)-6-methylpiperidin-3-yl)oxy)-5-cyclopropyl-N-(cyclopropylsulfonyl)-2-fluorobenzamide] | 2.9 | 
CS(=O)(=O)NC(=O)c1cc(C2CC2)c(OCC2CCN(C(c3ccc(F)c(Cl)c3)C(F)(F)F)CC2)cc1F (centres unmarked) [Example 301, 4-((1-(1-(3-chloro-4-fluorophenyl)-2,2,2-trifluoroethyl)piperidin-4-yl)methoxy)-5-cyclopropyl-2-fluoro-N-(methylsulfonyl)benzamide] | 3 | 
CS(=O)(=O)NC(=O)c1cc(C2CC2)c(OCC2CN([C@@H](c3ccccc3)c3cccc(C#N)c3)C2)cc1F [Example 108, (S)-4-((1-((3-Cyanophenyl)(phenyl)methyl)azetidin-3-yl)methoxy)-5-cyclopropyl-2-fluoro-N-(methylsulfonyl)benzamide] | 94 | 
C[Si](C)(C)CCS(=O)(=O)NC(=O)c1cc(C2CC2)c(OCC2CN(C(c3ccccc3)c3ccccc3)C2)cc1F [Example 60, 4-((1-benzhydrylazetidin-3-yl)methoxy)-5-cyclopropyl-2-fluoro-N-((2-(trimethylsilyl)ethyl)sulfonyl)benzamide] | 1600 | 
O=C(NS(=O)(=O)C1CC1)c1cc(C2CC2)c(CN2CCC(Oc3ccccc3C(F)(F)F)CC2)cc1F [Example 498, 5-cyclopropyl-N-(cyclopropylsulfonyl)-2-fluoro-4-((4-(2-(trifluoromethyl)phenoxy)piperidin-1-yl)methyl)benzamide] |  | 87.4
O=C(NS(=O)(=O)C1CC1)c1cc(C2CC2)c(CN2CCN(Cc3cc(Cl)cc(Cl)c3)CC2)cc1F [Example 518, 5-cyclopropyl-N-(cyclopropylsulfonyl)-4-((4-(3,5-dichlorobenzyl)piperazin-1-yl)methyl)-2-fluorobenzamide, trifluoroacetic acid salt] |  | 8.2
COC[C@H](c1ccc(F)c(Cl)c1)N1CCC(COc2cc(F)c(C(=O)NS(C)(=O)=O)cc2C2CC2)CC1 (single isomer, unassigned) [Example 182] | 14 | 
COC[C@@H](c1ccc(Cl)cc1Cl)N1CCC(COc2cc(F)c(C(=O)NS(C)(=O)=O)cc2C2CC2)CC1 [Example 283, (R)-5-cyclopropyl-4-((1-(1-(2,4-dichlorophenyl)-2-methoxyethyl)piperidin-4-yl)methoxy)-2-fluoro-N-(methylsulfonyl)benzamide] | 4 | 
C[C@@H](c1cc(Cl)cc(Cl)c1)N1CCC(COc2cc(F)c(C(=O)NS(C)(=O)=O)cc2Cl)CC1 [Example 402, (S)-5-chloro-4-((1-(1-(3,5-dichlorophenyl)ethyl)piperidin-4-yl)methoxy)-2-fluoro-N-(methylsulfonyl)benzamide, trifluoroacetic acid salt] | 22.4 | 
C[C@H]1CC[C@@H](Oc2cc(F)c(C(=O)NS(=O)(=O)N3CCC3)cc2C2CC2)CN1Cc1ccc(F)cc1Cl [Example 325, N-(azetidin-1-ylsulfonyl)-4-(((3R,6S)-1-(2-chloro-4-fluorobenzyl)-6-methylpiperidin-3-yl)oxy)-5-cyclopropyl-2-fluorobenzamide] | 2.4 | 
O=C(NS(=O)(=O)N1CCC1)c1cc(C2CC2)c(O[C@@H]2CCCN(Cc3cccc(Cl)c3)C2)cc1F [Example 28, (R)—N-(azetidin-1-ylsulfonyl)-4-((1-(3-chlorobenzyl)piperidin-3-yl)oxy)-5-cyclopropyl-2-fluorobenzamide] |  | 7.4
O=C(NS(=O)(=O)N1CCC1)c1cc(C2CC2)c(O[C@@H]2CCCN(c3cc(Cl)cc(Cl)c3)C2)cc1F [Example 43, (R)—N-(azetidin-1-ylsulfonyl)-5-cyclopropyl-4-((1-(3,5-dichlorophenyl)piperidin-3-yl)oxy)-2-fluorobenzamide] |  | 4.9
CCS(=O)(=O)NC(=O)c1cc(C2CC2)c(OCC2(C)CN([C@H](C)c3cc(Cl)cc(Cl)c3)C2)cc1F (single isomer, unassigned) [Example 288] | 3.5 | 
CS(=O)(=O)NC(=O)c1cc(C2CC2)c(OCC2CN(c3cc(C(F)(F)F)c(Cl)cn3)C2)cc1F [Example 542, 4-((1-(5-chloro-4-(trifluoromethyl)pyridin-2-yl)azetidin-3-yl)methoxy)-5-cyclopropyl-2-fluoro-N-(methylsulfonyl)benzamide] | 27 | 

More lines, now with the values ahead:

IC50 [1] [nM] | IC50 [nM] | SMILES
4 |  | C[C@@H](c1cc(Cl)cc(Cl)c1)N1CC(C)(COc2cc(F)c(C(=O)NS(C)(=O)=O)cc2C2CC2)C1 (single isomer, unassigned) [Example 186]
4.9 |  | CS(=O)(=O)NC(=O)c1cc(C2CC2)c(OC[C@H]2CCCN(Cc3cc(Cl)cc(Cl)c3)C2)cc1F [Example 336, (S)-5-cyclopropyl-4-((1-(3,5-dichlorobenzyl)piperidin-3-yl)methoxy)-2-fluoro-N-(methylsulfonyl)benzamide]
 | 23.5 | CS(=O)(=O)NC(=O)c1cc(C2CC2)c(CN2CCC(OCc3cc(Cl)cc(Cl)c3)CC2)cc1F [Example 511, 5-cyclopropyl-4-((4-((3,5-dichlorobenzyl)oxy)piperidin-1-yl)methyl)-2-fluoro-N-(methylsulfonyl)benzamide, trifluoroacetic acid salt]
> 10000 |  | CS(=O)(=O)NC(=O)c1cc(C2CC2)c(O[C@@H]2CCCN(S(C)(=O)=O)C2)cc1F [Example 314, (R)-5-cyclopropyl-2-fluoro-N-(methylsulfonyl)-4-((1-(methylsulfonyl)piperidin-3-yl)oxy)benzamide]
19.1 |  | C[C@@H](c1ccc(F)cc1)N1CCC[C@@H](Oc2cc(F)c(C(=O)NS(C)(=O)=O)cc2C2CC2)C1 (single isomer, unassigned) [Example 315]
7.9 |  | CCS(=O)(=O)NC(=O)c1cc(C2CC2)c(OCC2CCN([C@@H](C)c3ccc(F)cc3Cl)CC2)cc1F (single isomer, unassigned) [Example 245]
3.8 |  | O=C(NS(=O)(=O)C1CC1)c1cc(C2CC2)c(OCC2CCN(Cc3ccc(Br)cc3Cl)CC2)cc1F [Example 414, 4-((1-(4-bromo-2-chlorobenzyl)piperidin-4-yl)methoxy)-5-cyclopropyl-N-(cyclopropylsulfonyl)-2-fluorobenzamide, trifluoroacetic acid salt]
9.1 |  | CS(=O)(=O)NC(=O)c1cc(C2CC2)c(OCC2CCN(S(=O)(=O)c3cc(Cl)c(Br)cc3F)CC2)cc1F [Example 366, 4-((1-((4-bromo-5-chloro-2-fluorophenyl)sulfonyl)piperidin-4-yl)methoxy)-5-cyclopropyl-2-fluoro-N-(methylsulfonyl)benzamide]
11 |  | Cc1ccc(CN2CCC[C@@H](Oc3cc(F)c(C(=O)NS(C)(=O)=O)cc3C3CC3)C2)cc1C [Example 439, (R)-5-cyclopropyl-4-((1-(3,4-dimethylbenzyl)piperidin-3-yl)oxy)-2-fluoro-N-(methylsulfonyl)benzamide, trifluoracetic acid salt]
5.4 |  | Cc1ccc(CN2CCC[C@@H](Oc3cc(F)c(C(=O)NS(C)(=O)=O)cc3C3CC3)C2)cc1Cl [Example 435, (R)-4-((1-(3-Chloro-4-methylbenzyl)piperidin-3-yl)oxy)-5-cyclopropyl-2-fluoro-N-(methylsulfonyl)benzamide, trifluoroacetic acid salt]
